Measurements published in patent publication US9580390B2, “Indazole compounds as kinase inhibitors and method of treating cancer with same” (University Health Network, priority 2011, dated 2017).

How the values were obtained:
human PLK4 = molecular target: T1, human PLK4 (Homo sapiens, UniProt O00444); test: PLK4 inhibition assay (indirect ELISA); assay type: biochemical; settings: 15 μM ATP
T1 construct: amino terminal GST fusion of residues 1-391 of human PLK4; made in house; host or cells: E. coli
T1 sequence (O00444 1-391): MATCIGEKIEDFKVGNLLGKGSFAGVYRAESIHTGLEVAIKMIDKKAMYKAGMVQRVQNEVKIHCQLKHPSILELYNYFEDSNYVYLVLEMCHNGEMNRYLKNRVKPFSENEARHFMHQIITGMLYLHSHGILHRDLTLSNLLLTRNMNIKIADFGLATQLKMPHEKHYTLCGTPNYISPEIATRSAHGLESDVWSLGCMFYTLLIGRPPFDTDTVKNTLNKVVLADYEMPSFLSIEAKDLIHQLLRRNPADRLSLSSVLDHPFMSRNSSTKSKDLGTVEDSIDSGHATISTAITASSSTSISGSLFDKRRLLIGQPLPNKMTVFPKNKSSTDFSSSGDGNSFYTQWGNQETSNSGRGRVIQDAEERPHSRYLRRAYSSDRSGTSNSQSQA
Protocol: Active PLK4 was purified from an E. coli expression system as an amino terminal GST fusion of residues 1-391 of human PLK4. The protein was purified from clarified cell extracts after induction at 15° C. overnight using glutathione sepharose, gel permeation chromatography, and ion exchange (Resource Q). The resulting protein was dephosphorylated with lambda phosphatase (NEB cat# P0753), and resolved from the phosphatase using gluthione sepharose. The dephosphorylated GST-PLK4 was stored in aliquots at −80° C. until use.
PLK4 activity was measured using an indirect ELISA detection system. Dephosphorylated GST-PLK4 (4 nM) was incubated in the presence of 15 μM ATP (Sigma cat# A7699), 50 mM HEPES-[…] pH 7.4, 10 mM MgCl2, 0.01% Brij 35 (Sigma cat# 03-3170), in a 96 well microtitre plate pre-coated with MBP (Millipore cat#30-011). The reaction was allowed to proceed for 30 minutes, followed by 5 washes of the plate with Wash Buffer (50 mM TRIS-Cl pH 7.4 and 0.2% Tween 20), and incubation for 30 minutes with a 1:3000 dilution of primary antibody (Cell Signaling cat# 9381). The plate was washed 5 times with Wash Buffer, incubated for 30 minutes in the presence of secondary antibody coupled to horse radish peroxidase (BioRad cat# 1721019, 1:3000 concentration), washed an additional 5 times with Wash Buffer, and incubated in the presence of TMB substrate (Sigma cat# T0440). The colourimetric reaction was allowed to continue for 5 minutes, followed by addition of stop solution (0.5 N sulphuric acid), and quantified by detection at 450 nm with either a monochromatic or filter based plate reader (Molecular Devices M5 or Beckman DTX880, respectively).
Compound inhibition was determined at either a fixed concentration (10 μM) or at a variable inhibitor concentration (typically 50 μM to 0.1 μM in a 10 point dose response titration). Compounds were pre-incubated in the presence of enzyme for 15 minutes prior to addition of ATP and the activity remaining quantified using the above described activity assay. The % Inhibition of a compound was determined using the following formula: % Inhibition=100×(1−(experimental value−background value)/(high activity control−background value)). The IC50 value was determined using a non-linear 4 point logistic curve fit (XLfit4, IDBS) with the formula: (A+(B/(1+((x/C)^D)))), where A=background value, B=range, C=inflection point, D=curve fit parameter.

[1] = test system: colon cancer cells (HCT116); test: Cancer cell line growth inhibition (SRB assay); assay type: cell-based; settings: Homo sapiens, HCT-116; HCT116 colon cancer cells, SRB assay; read-out: Cancer Cell Line GI50 Range HCT116
[2] = test system: ovarian cancer cells (PA-1); test: Cancer cell line growth inhibition (SRB assay); assay type: cell-based; settings: PA-1 ovarian cancer cells, SRB assay; read-out: Cancer Cell Line GI50 Range PA-1

Structure (SMILES)	IC50 (human PLK4)	GI50 [1]	GI50 [2]
O=C(Nc1ccc2[nH]nc(-c3ccc4c(c3)OCO4)c2c1)C(c1ccsc1)N1CCCC1 (stereo not shown) [Example A14, N-(3-(benzo[d][1,3]dioxol-5-yl)-1H-indazol-5-yl)-2-(pyrrolidin-1-yl)-2-(thiophen-3-yl)acetamide]	< 50 nM	> 500 nM	–
CCC(NC(=O)c1ccc2[nH]nc(-c3ccc(OC4CCN(C)CC4)cc3)c2c1)C1CCCCC1 (stereo not shown) [Example A69, N-(1-cyclohexylpropyl)-3-(4-((1-methylpiperidin-4-yl)oxy)phenyl)-1H-indazole-5-carboxamide]	< 50 nM	100 to 500 nM	–
O=C(Nc1ccc2[nH]nc(-c3ccc(NC4CCOCC4)cc3)c2c1)C(c1ccsc1)N1CCCC1 (stereo not shown) [Example A71, 2-(pyrrolidin-1-yl)-N-(3-(4-((tetrahydro-2H-pyran-4-yl)amino)phenyl)-1H-indazol-5-yl)-2-(thiophen-3-yl)acetamide]	< 50 nM	< 100 nM	–
CN1CCC(C(NC(=O)c2ccc3[nH]nc(-c4ccc(N5CCOCC5)cc4)c3c2)c2ccccc2)CC1 (stereo not shown) [Example A85, N-((1-methylpiperidin-4-yl)(phenyl)methyl)-3-(4-morpholinophenyl)-1H-indazole-5-carboxamide]	< 50 nM	< 100 nM	< 100 nM
Cc1ccccc1CC(=O)Nc1ccc2[nH]nc(-c3ccc(OC4CCN(C)CC4)cc3)c2c1 [Example A92, N-(3-(4-(1-Methylpiperidin-4-yloxy)phenyl)-1H-indazol-5-yl)-2-o-tolylacetamide]	< 50 nM	< 100 nM	100 to 500 nM
O=C(Nc1ccc2[nH]nc(-c3ccc(N4CCC(CO)CC4)cc3)c2c1)C(c1ccsc1)N1CCCC1 (stereo not shown) [Example A95, N-(3-(4-(4-(hydroxymethyl)piperidin-1-yl)phenyl)-1H-indazol-5-yl)-2-(pyrrolidin-1-yl)-2-(thiophen-3-yl)acetamide]	< 50 nM	< 100 nM	< 100 nM
C[C@@H]1CCCN1[C@@H](C(=O)Nc1ccc2[nH]nc(-c3ccc(N4CCOCC4)cc3)c2c1)c1ccsc1 [Example A97, (R)-2-((R)-2-methylpyrrolidin-1-yl)-N-(3-(4-morpholinophenyl)-1H-indazol-5-yl)-2-(thiophen-3-yl)acetamide]	< 50 nM	100 to 500 nM	100 to 500 nM
O=C(Nc1ccc2[nH]nc(-c3ccc(OC4CCN(CCF)CC4)cc3)c2c1)C(c1ccsc1)N1CCCC1 (stereo not shown) [Example A102, N-(3-(4-((1-(2-fluoroethyl)piperidin-4-yl)oxy)phenyl)-1H-indazol-5-yl)-2-(pyrrolidin-1-yl)-2-(thiophen-3-yl)acetamide]	< 50 nM	< 100 nM	< 100 nM
COCCN1CCC(Oc2ccc(-c3n[nH]c4ccc(C(=O)N[C@H](C)c5ccccc5F)cc34)cc2)CC1 [Example A129, (R)-N-(1-(2-fluorophenyl)ethyl)-3-(4-((1-(2-methoxyethyl)piperidin-4-yl)oxy)phenyl)-1H-indazole-5-carboxamide]	< 50 nM	100 to 500 nM	100 to 500 nM
COCCN1CCC(Oc2ccc(-c3n[nH]c4ccc(C(=O)NC(c5ccsc5)C5CCCC5)cc34)cc2)CC1 (stereo not shown) [Example A155, N-(cyclopentyl(thiophen-3-yl)methyl)-3-(4-((1-(2-methoxyethyl)piperidin-4-yl)oxy)phenyl)-1H-indazole-5-carboxamide]	< 50 nM	100 to 500 nM	100 to 500 nM
CN1CCC(Oc2ccc(-c3n[nH]c4ccc(NC(=O)C(c5ccccn5)C5CCCC5)cc34)cc2)CC1 (stereo not shown) [Example A179, 2-cyclopentyl-N-(3-(4-((1-methylpiperidin-4-yl)oxy)phenyl)-1H-indazol-5-yl)-2-(pyridin-2-yl)acetamide]	< 50 nM	–	–

More lines, now with the values ahead:

IC50 (human PLK4)	GI50 [1]	GI50 [2]	Structure (SMILES)
< 50 nM	–	–	CN1CCC(Oc2ccc(-c3n[nH]c4ccc(NC(=O)C(c5ccsc5)N5CCCC5)cc34)cc2)CC1 (stereo not shown) [Example A7, N-(3-(4-((1-methylpiperidin-4-yl)oxy)phenyl)-1H-indazol-5-yl)-2-(pyrrolidin-1-yl)-2-(thiophen-3-yl)acetamide]
< 50 nM	> 500 nM	–	O=C(Nc1ccc2[nH]nc(-c3ccc4c(c3)OCCO4)c2c1)C(c1ccsc1)N1CCCC1 (stereo not shown) [Example A15, N-(3-(2,3-dihydrobenzo[b][1,4]dioxin-6-yl)-1H-indazol-5-yl)-2-(pyrrolidin-1-yl)-2-(thiophen-3-yl)acetamide]
< 50 nM	< 100 nM	–	O=C(Nc1ccc2[nH]nc(-c3ccc(OC4CCNCC4)c(Cl)c3)c2c1)C(c1ccsc1)N1CCCC1 (stereo not shown) [Example A34, N-(3-(3-chloro-4-(piperidin-4-yloxy)phenyl)-1H-indazol-5-yl)-2-(pyrrolidin-1-yl)-2-(thiophen-3-yl)acetamide]
< 50 nM	< 100 nM	–	O=C(Nc1ccc2[nH]nc(-c3ccc(OCCCN4CCOCC4)cc3)c2c1)C(c1ccsc1)N1CCCC1 (stereo not shown) [Example A45, N-(3-(4-(3-morpholinopropoxy)phenyl)-1H-indazol-5-yl)-2-(pyrrolidin-1-yl)-2-(thiophen-3-yl)acetamide]
< 50 nM	< 100 nM	–	C[C@@H]1CN(c2ccc(-c3n[nH]c4ccc(NC(=O)C(c5ccsc5)N5CCCC5)cc34)cc2)C[C@H](C)O1 (stereo partly drawn) [Example A50, N-(3-(4-((2S,6R)-2,6-dimethylmorpholino)phenyl)-1H-indazol-5-yl)-2-(pyrrolidin-1-yl)-2-(thiophen-3-yl)acetamide]
< 50 nM	100 to 500 nM	–	CN1CCC(Oc2ccc(-c3n[nH]c4ccc(NC(=O)C(c5ccsc5)N5CCCC5)cc34)cc2Cl)CC1 (stereo not shown) [Example A57]
< 50 nM	100 to 500 nM	–	O=C(Nc1ccc2[nH]nc(-c3ccc(N4CCOCC4)c(F)c3)c2c1)C(c1ccsc1)N1CCCC1 (stereo not shown) [Example A60, N-(3-(3-fluoro-4-morpholinophenyl)-1H-indazol-5-yl)-2-(pyrrolidin-1-yl)-2-(thiophen-3-yl)acetamide]
< 50 nM	–	–	O=C(NC(c1ccsc1)C1CC1)c1ccc2[nH]nc(-c3ccc(N4CCC(O)CC4)cc3)c2c1 (stereo not shown) [Example A101, N-(cyclopropyl(thiophen-3-yl)methyl)-3-(4-(4-hydroxypiperidin-1-yl)phenyl)-1H-indazole-5-carboxamide]
< 50 nM	< 100 nM	< 100 nM	O=C(NC(c1ccsc1)C1CC1)c1ccc2[nH]nc(-c3ccc(OC4CCN(CCO)CC4)cc3)c2c1 (stereo not shown) [Example A117, N-(cyclopropyl(thiophen-3-yl)methyl)-3-(4-((1-(2-hydroxyethyl)piperidin-4-yl)oxy)phenyl)-1H-indazole-5-carboxamide]
< 50 nM	100 to 500 nM	100 to 500 nM	CN1CCC(Oc2ccc(-c3n[nH]c4ccc(NC(=O)C(c5ccccc5)C5CCCC5)cc34)cc2)CC1 (stereo not shown) [Example A148, 2-cyclopentyl-N-(3-(4-((1-methylpiperidin-4-yl)oxy)phenyl)-1H-indazol-5-yl)-2-phenylacetamide]
< 50 nM	–	–	CC(C)C[C@H](NC(=O)c1ccc2[nH]nc(-c3ccc(N4C5COCC4CC(O)C5)cc3)c2c1)c1ccccn1 (stereo partly drawn) [Example A306, 3-(4-((1R,5S,7R)-7-hydroxy-3-oxa-9-azabicyclo[3.3.1]nonan-9-yl)phenyl)-N-((S)-3-methyl-1-(pyridin-2-yl)butyl)-1H-indazole-5-carboxamide]
